Experimental data from patent publication US8211901B2, “Naphthamide derivatives as multi-target protein kinase inhibitors and histone deacetylase inhibitors” (Shenzhen Chipscreen Biosciences Ltd., priority 2009, dated 2012).

Key:
human PDGFRβ = target: T1, human PDGFRβ (Homo sapiens, UniProt P09619); test: PDGF dependent cell proliferation (MTS); assay type: cell-based; settings: PDGFRβ NIH-3T3 cells, PDGF BB 50 ng/ml, 72 hours, serum-free medium; read-out: GI50 nM (PDGF ligand-dependent cell proliferation)
T1 construct: expressed in transfected cells
T1 sequence (P09619 33-1106): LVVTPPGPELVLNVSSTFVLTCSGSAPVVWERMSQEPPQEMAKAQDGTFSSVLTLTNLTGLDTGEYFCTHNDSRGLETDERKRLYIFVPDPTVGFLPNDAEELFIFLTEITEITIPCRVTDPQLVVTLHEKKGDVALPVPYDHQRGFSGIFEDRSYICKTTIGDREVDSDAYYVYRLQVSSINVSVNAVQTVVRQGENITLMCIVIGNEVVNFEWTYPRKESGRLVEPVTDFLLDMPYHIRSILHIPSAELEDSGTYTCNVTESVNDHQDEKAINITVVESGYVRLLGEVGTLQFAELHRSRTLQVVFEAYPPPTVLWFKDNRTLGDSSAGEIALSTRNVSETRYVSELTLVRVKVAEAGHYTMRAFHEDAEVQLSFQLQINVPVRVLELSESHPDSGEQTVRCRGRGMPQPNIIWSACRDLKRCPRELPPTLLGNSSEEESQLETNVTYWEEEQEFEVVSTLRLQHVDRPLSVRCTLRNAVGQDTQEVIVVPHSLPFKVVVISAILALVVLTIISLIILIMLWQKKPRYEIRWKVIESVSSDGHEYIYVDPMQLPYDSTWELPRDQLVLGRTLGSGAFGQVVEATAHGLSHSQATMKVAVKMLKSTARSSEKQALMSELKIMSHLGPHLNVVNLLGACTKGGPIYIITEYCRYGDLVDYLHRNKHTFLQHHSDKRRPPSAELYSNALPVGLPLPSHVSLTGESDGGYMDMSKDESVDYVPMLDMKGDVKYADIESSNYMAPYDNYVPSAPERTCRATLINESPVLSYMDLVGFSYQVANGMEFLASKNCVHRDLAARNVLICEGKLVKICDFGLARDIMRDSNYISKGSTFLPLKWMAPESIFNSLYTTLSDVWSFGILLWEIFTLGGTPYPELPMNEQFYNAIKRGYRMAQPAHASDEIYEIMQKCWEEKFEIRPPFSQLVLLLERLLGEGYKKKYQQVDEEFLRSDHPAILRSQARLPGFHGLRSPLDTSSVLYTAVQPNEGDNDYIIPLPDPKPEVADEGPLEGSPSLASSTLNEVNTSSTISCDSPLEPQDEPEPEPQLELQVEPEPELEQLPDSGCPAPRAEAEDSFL
Protocol: PDGF Dependent Cell Proliferation:
NIH-3T3 mouse fibroblasts cell line engineered to stably express human PDGFIRβ was constructed and used to evaluate PDGF dependent cell proliferation. PDGFRβ NIH-3T3 cells were plated into 96-well plates at 5,000 per well and incubated with serum-free medium for 24 hours. Compounds and PDGF BB (50 ng/ml) were added and incubated for 72 hours in serum-free medium. The effects on proliferation were determined by addition of MTS reagent (Promega) according to the instruction, incubation for 2 hours at 37° C. in CO2 incubator, and record the absorbance at 490 nm using an ELISA plate reader.

[1] = test system: total HDAC enzyme (HeLa extract); test: In vitro inhibition of total HDAC enzyme activity (HDAC Fluorimetric Assay/Drug Discovery Kit); assay type: biochemical
Protocol: Measurement of In Vitro Inhibition of Total HDAC Enzyme Activity:
The in vitro inhibition of total HDAC enzyme was determined by HDAC Fluorimetric Assay/Drug Discovery Kit (BIOMOL) according to manufacture's instruction. • 1. Add Assay buffer, diluted trichostatin A or test inhibitor to appropriate wells of the microtiter plate. Following table lists examples of various assay types and the additions required for each test.
• 2. Add diluted HeLa extract or other HDAC sample to all wells except those that are to be “No Enzyme Controls” (Blank). • 3. Allow diluted Fluor de Lys™ Substrate and the samples in the microtiter plate to equilibrate to assay temperature (25° C.). • 4. Initiate HDAC reactions by adding diluted substrate (25 μl) to each well and mixing thoroughly. • 5. Allow HDAC reactions to proceed for desired length of time and then stop them by addition of Fluor de Lys™ Developer (50 μl). Incubate plate at room temperature (25° C.) for 10-15 min. • 6. Read samples in a microtiter-plate reading fluorimeter capable of excitation at a wavelength in the range 350-380 nm and detection of emitted light in the range 440-460 nm. Measurement of In Vivo Inhibition of HDAC Subtype Activity: […]

[2] = test system: human HCT-8 colon cancer xenograft; test: Antitumor activity of compounds 33 and 34, HCT-8 xenograft (Example 54); assay type: in vivo, nu/nu mice
Protocol: (§1) The antitumor activity of compound 33 and compound 34 were measured in human HCT-8 colon cancer xenograft model. The female nu/nu mice of 18˜20 g were fed by normal diet for 3 days. Then the cultured HCT-8 human colon cancer cells were implanted into the armpit of 50 mice. When tumors had reached approximately 100 mm^3, the mice were divided into 6 groups randomly. Each group has 8 mice. One group was treated with vehicle. One group was treated with sutent, the positive control drug. Two groups were treated with compound 33. The other two groups were treated with compound 34. Each group was dosed orally once a day for 20 days. Tumor volumes as established by caliper measurements were recorded twice per week, along with body weights. At the end of study, the mice were killed, and tumors were weighed. The tumor growth inhibition of each group was calculated using the formula {[(the average tumor weight of vehicle group)−(the average tumor weight of drug group)]/(the average tumor weight of vehicle group)}×100%.

[3] = Body weight in HCT-8 xenograft study (Example 54); assay type: in vivo, nu/nu mice
Protocol: as §1

A549 = test: Tumor cell proliferation (MTS), A549; assay type: cell-based; settings: Homo sapiens, 72 hours, complete medium
Protocol: (§2) Measurement of In Vivo Cell Proliferation:
(§3) Tumor cells were trypsinized and plated into 96-well plates at 3,000 per well and incubated in complete medium with 10% FBS for 24 hours. Compounds were added over a final concentration range of 100 μmol/L to 100 nmol/L in 0.1% DMSO and incubated for 72 hours in complete medium. The effects on proliferation were determined by addition of MTS reagent (Promega) according to the instruction, incubation for 2 hours at 37° C. in CO2 incubator, and record the absorbance at 490 nm using an ELISA plate reader.
(§4) Human Cell Lines are Listed Below:
A549: Non small cell lung carcinoma

Class I HDAC = test: P21 reporter gene assay in HeLa cells; assay type: cell-based; settings: 24 hours
Protocol: HDAC subtype selectivity inhibition assay of tested compounds was carried out by several reporter gene assays experiments. Briefly, HeLa cells were seeded in 96-well plates the day before transfection to give a confluence of 50-80%. Cells were transfected with one of reporter gene plasmid containing a promoter sequence or response element upstream of a luciferase gene construct using FuGene6 transfection reagent according to the manufacturer's instruction (Roche). The promoters or response elements including p21-promoter was fused upstream to the luciferase gene reporter construct. For normalizing the transfection efficiency, a GFP expression plasmid was cotransfected. Cells were allowed to express protein for 24 hours followed by addition of individual compounds or the vehicle (DMSO). 24 hours later the cells were harvested, and the luciferase assay and GFP assay were performed using corresponding assay kits according to the manufacturer's instructions (Promega).

A-498 = test: Tumor cell proliferation (MTS), A-498; assay type: cell-based; settings: Homo sapiens, A498; 72 hours, complete medium
Protocol: as §2, §3

HUVEC cells = test: VEGF dependent cell proliferation (MTS); assay type: cell-based; settings: Homo sapiens, VEGF 165 50 ng/ml, 72 hours, serum-free medium, read-out: GI50 nM (VEGF ligand-dependent cell proliferation)
Protocol: VEGF Dependent Cell Proliferation:
HUVEC cells were plated into 96-well plates at 6,000 per well and incubated with serum-free medium for 2 hours. Compounds and VEGF 165 (50 ng/ml) were added and incubated for 72 hours in serum-free medium. The effects on proliferation were determined by addition of MTS reagent (Promega) according to the instruction, incubation for 2 hours at 37° C. in CO2 incubator, and record the absorbance at 490 nm using an ELISA plate reader.

Bel-7402 = test: Tumor cell proliferation (MTS), Bel-7402; assay type: cell-based; settings: Homo sapiens, 72 hours, complete medium
Protocol: as §2, §3, §4
Bel-7402: Hepatocellular carcinoma

MCF-7 = test: Tumor cell proliferation (MTS), MCF-7; assay type: cell-based; settings: Homo sapiens, MCF7; 72 hours, complete medium
Protocol: as §2, §3, §4
MCF-7: Mammary gland adenocarcinoma

HCT-8 = test: Tumor cell proliferation (MTS), HCT-8; assay type: cell-based; settings: Homo sapiens, 72 hours, complete medium
Protocol: as §2, §3, §4
HCT-8: Ileocecal colorectal adenocarcinoma

[4] = Body weight in SSMC7721 xenograft study (Example 56); assay type: in vivo, nu/nu mice
Protocol: The antitumor activity of compound 33 and compound 37 were measured in human SSMC7721 liver cancer xenograft model. The female nu/nu mice of 18˜20 g were fed by normal diet for 3 days. Then the cultured SSMC7721 human liver cancer cells were implanted into the armpit of 50 mice. […] Each group has 8 mice. One group was treated with vehicle. One group was treated with sutent, the positive control drug. Two groups were treated with compound 33. The other two groups were treated with compound 37. Each group was dosed orally once a day for 30 days. Tumor volumes as established by caliper measurements were recorded twice per week, along with body weights. At the end of study, the mice were killed, and tumors were weighed. The tumor growth inhibition of each group was calculated using the formula {[(the average tumor weight of vehicle group)−(the average tumor weight of drug group)]/(the average tumor weight of vehicle group)}×100%.

[5] = Body weight in HCT-8 xenograft study (Example 55); assay type: in vivo, nu/nu mice
Protocol: The antitumor activity of compound 33 and compound 37 were measured in human HCT-8 colon cancer xenograft model. The female nu/nu mice of 18˜20 g were fed by normal diet for 3 days. Then the cultured HCT-8 human colon cancer cells were implanted into the armpit of 50 mice. […] One group was treated with vehicle. One group was treated with sutent, the positive control drug. Two groups were treated with compound 33. The other two groups were treated with compound 37. Compound 33 was administered twice a day with an interval of 6 hours. Other drugs and vehicle were administered once a day. Each group was dosed orally for 20 days. Tumor volumes as established by caliper measurements were recorded twice per week, along with body weights. At the end of study, the mice were killed, and tumors were weighed. The tumor growth inhibition of each group was calculated using the formula {[(the average tumor weight of vehicle group)−(the average tumor weight of drug group)]/(the average tumor weight of vehicle group)}×100%.

[6] = 30 mg/kg orally once a day for 20 days
[7] = 60 mg/kg orally once a day for 20 days
[8] = 30 mg/kg orally once a day for 30 days
[9] = 60 mg/kg orally once a day for 30 days

GI50 (human PDGFRβ)	% inhibition of total HDAC enzyme activity at 30 μM [1]	GI50 (A549)	Class I HDAC (P21 reporter assay) Fold Induction at 10 μM (Class I HDAC)	GI50 (A-498)	GI50 (Bel-7402)	GI50 (MCF-7)	GI50 (HCT-8)	SMILES	GI50 (HUVEC cells)	other results
159 nM	35.9%	30 µM	3.0 Fold	≥ 30 µM	30 µM	30 µM	30 µM	COc1cc2nccc(Oc3ccc4c(C(=O)NCc5ccc(C(=O)Nc6ccccc6N)cc5)cccc4c3)c2cc1OC [Example 37, N-(4-((2-aminophenyl)carbamoyl)benzyl)-6-(6,7-dimethoxyquinolin-4-yloxy)-1-naphthamide]	4 nM	Body weight (g) end [4, 8]: 25.3 ± 0.9 g; Body weight (g) start [4, 8]: 20.7 ± 1.2 g; Body weight (g) end [4, 9]: 24.3 ± 1.1 g; Body weight (g) start [4, 9]: 21.4 ± 0.6 g; Body weight (g) end [5, 6]: 23.6 ± 2.2 g; Body weight (g) start [5, 6]: 20.6 ± 0.8 g; Body weight (g) end [5, 7]: 24.1 ± 2.1 g; Body weight (g) start [5, 7]: 20.8 ± 0.8 g
5 nM	19.3%	7.7 µM	1.2 Fold	9.1 µM	19.5 µM	13.3 µM	8.9 µM	COc1cc2nccc(Oc3ccc4c(C(=O)Nc5ccccc5N)cccc4c3)c2cc1OC [Example 35, N-(2-aminophenyl)-6-(6,7-dimethoxyquinolin-4-yloxy)-1-naphthamide]	1 nM	–
74 nM	39.3%	30 µM	3.1 Fold	6.9 µM	30 µM	9.4 µM	8 µM	COc1cc2nccc(Oc3ccc4c(C(=O)NCc5ccc(C(=O)Nc6ccccc6N)cn5)cccc4c3)c2cc1OC [Example 38]	25 nM	–

SMILES	GI50 (human PDGFRβ)	% inhibition of total HDAC enzyme activity at 30 μM [1]	GI50 (A549)	Class I HDAC (P21 reporter assay) Fold Induction at 10 μM (Class I HDAC)	GI50 (A-498)	GI50 (Bel-7402)	GI50 (MCF-7)	GI50 (HCT-8)	GI50 (HUVEC cells)	other results
COc1ccc2c(Oc3ccc4c(C(=O)NCc5ccc(C(=O)Nc6ccccc6N)cn5)cccc4c3)ccnc2c1 [Example 34]	248 nM	38.8%	11.2 µM	5.0 Fold	7.9 µM	17.7 µM	5.2 µM	5.5 µM	90 nM	TGI (%) Tumor growth inhibition [2, 6]: 3.07%; Tumor weight [2, 6]: 3.95 ± 0.73 g; TGI (%) Tumor growth inhibition [2, 7]: 32.7%; Tumor weight [2, 7]: 2.74 ± 0.77 g; Body weight (g) end [3, 6]: 21.2 ± 1.9 g; Body weight (g) start [3, 6]: 19.7 ± 1.2 g; Body weight (g) end [3, 7]: 21.6 ± 2.3 g; Body weight (g) start [3, 7]: 19.6 ± 1.1 g
